Assay results published in patent US9132118B2, “Taxane analogs for the treatment of brain cancer” (Tapestry Pharmaceuticals, Inc., priority 2007, dated 2015).
“Also recorded” adds a separate entry of the source.

Assays:
[1] = tested on: bovine microtubule protein (tubulin plus microtubule associated proteins); assay: In vitro ED50 MT polymerization study (DAPI fluorescence tubulin assay); assay type: biochemical
Method: In this tubulin binding assay, microtubule protein (MTP) is used as a substrate. The assay contains bovine tubulin plus microtubule associated proteins (MAP). MTP is polymerized into microtubules in the presence of DAPI (4′,6′-diamidino-2-phenylindole), a fluorescent compound. DAPI binds to tubulin; when microtubules are formed and there is an enhancement of fluorescence. The microtubule formation is measured as a function of time, using a fluorescence plate reader. […] The method used is based on the procedure published by Donna M. Barron, et al, “Fluorescence-based high-throughput assay for antimicrotuble drugs” Analytical Biochemistry, 315: 49-56, 2003, which is incorporated by reference in its entirety. The excitation wavelength, in that assay, was set at 370 nm and the emission wavelength was set at 450 nm for the DAPI experiments.
A Bio-Tek FL 600 microplate Fluorescence Reader was used to measure the relative level of fluorescence in the DAPI assay.
Assays were conducted in 96-well plates. […] The final DMSO concentration was 4%. The plates were incubated at 37° C. for 30 minutes and read in a fluorescence plate reader using an excitation wavelength of 360 nm and an emission wavelength of 460 nm. Fluorescence values were corrected for the sample without compound. […] Experiments were done twice in triplicate. Results were subsequently combined and fit to a non-linear regression program.

[2] = Phase 1 Study S-(1)-01, i.v. weekly x3 in a 28-day cycle, safety and pharmacokinetics; assay type: in vivo, patients; conditions: for AUC0-24 / Cl / Vss / t1/2: Study S-(1)-01 (50:50 Cremophor EL-P/ethanol), i.v., first dose
Method: Both trials have enrolled patients with advanced solid tumors, non-Hodgkin's lymphoma or Hodgkin's lymphoma that have recurred or progressed following at least standard therapy; patients with malignancies for which there is no standard therapy; patients who are not candidates for standard therapy; or patients who have chosen not to pursue standard therapy.
Plasma pharmacokinetics of S-(1) were assessed following the first dose of S-(1) in both studies. Plasma samples were analyzed for S-(1) using a validated LC/MS-MS method.
Treatment cohorts consisted of 3 pts and were expanded to 6 pts in the face of dose-limiting toxicity (DLT); pts could remain on study until the development of progressive disease or an intolerable adverse event. DLT was defined as Gr 4 heme toxicity lasting 7 days; febrile neutropenia, Gr 3 thrombocytopenia with bleeding, Gr 3 elevation of transaminases lasting 7 days or any other Gr 3/4 toxicity other than nausea or vomiting. Results: 25 pts (M:F 16:9, median age 60, range 24-86) were enrolled in 7 dose levels ranging from 7-185 mg/m^2. Pts' cancers included colorectal (6 pts); NSCLC (2); prostate (2); squamous cell carcinoma (2) and 1 pt each with cervical, breast, ovarian, gastric, pancreatic, bladder endometrial, NSCLC, SCLC, glioblastoma, melanoma, renal cell and hepatocellular carcinoma.

[3] = S-(1) pharmacokinetics in mouse, plasma and brain levels after single IV bolus; assay type: in vivo, mice; conditions: single IV 20 mg/kg; for AUC (0-t) / AUC (0-∞) / Cmax / MRT (expo): male CD-1 mice
Method: S-(I) was formulated in 7% Ethanol: 3% Cremophor EL: 90% D5W (5% Dextrose in water). The formulated drug was administered as a single IV bolus via tail vein injection. The details are set out below:
Sample Collection timing: Terminal blood (plasma) and brain specimens were collected at 9 times post-dose, with 4 mice per sample time. Sample collection times:
Blood collection: A terminal blood sample was collected from each mouse via cardiac puncture. The whole blood was collected on wet ice, spun down immediately (at 4° C.), and plasma stored frozen at −20° C. until analysis. The anticoagulant used was K2EDTA. Brain Sample Collection: Whole brains were removed by dissection. Brains were collected on wet ice, weighed, and stored at −20° C.

[4] = weekly study summary, dose of 127.5 mg/m^2

**Q.** For C=C[C@H]1O[C@H]2CC3OC[C@@]3(OC(C)=O)[C@H]3[C@H](OC(=O)c4ccccc4)[C@]4(C(C)(C)O)C[C@H](OC(=O)[C@H](O)[C@H](CC(C)C)NC(=O)OC(C)(C)C)C(C)=C4[C@H](OC(C)=O)[C@H](O1)[C@]23C (stereo partly drawn) [S-(1)], which “ED50 Compound/ED50 Paclitaxel” value ([1]; ratio of tubulin polymerization ED50 values) is on record?
**A.** 0.53

**Q.** And the EC50 ([1]; tubulin polymerization, 37° C. 30 minutes, percent of maximum assembly at 25 μM paclitaxel)?
**A.** 1580 ± 460 nM

**Q.** What about the AUC0-24 ([2]; 14 mg/m^2, plasma) of the same molecule?
**A.** 457 ± 297 ng·h/mL

**Q.** And the Cl ([2]; 14 mg/m^2, plasma)?
**A.** 35.5 ± 29.7 L/hr/m^2

**Q.** What about the Vss ([2]; 14 mg/m^2, plasma) of the same molecule?
**A.** 23.2 ± 74.5 L/m^2

**Q.** What about the t1/2 ([2]; 14 mg/m^2, plasma) of the same molecule?
**A.** 8.4 ± 11.5 h

**Q.** And the AUC0-24 ([2]; 28 mg/m^2, plasma)?
**A.** 682 ± 322 ng·h/mL

**Q.** What about the Cl ([2]; 28 mg/m^2, plasma) of the same molecule?
**A.** 43.5 ± 14.5 L/hr/m^2

**Q.** What about the Vss ([2]; 28 mg/m^2, plasma) of the same molecule?
**A.** 309 ± 161 L/m^2

**Q.** What about the t1/2 ([2]; 28 mg/m^2, plasma) of the same molecule?
**A.** 3.45 ± 1.09 h

**Q.** And the AUC0-24 ([2]; 56 mg/m^2, plasma)?
**A.** 2070 ± 888 ng·h/mL

**Q.** What about the Cl ([2]; 56 mg/m^2, plasma) of the same molecule?
**A.** 28.6 ± 13.2 L/hr/m^2

**Q.** What about the Vss ([2]; 56 mg/m^2, plasma) of the same molecule?
**A.** 216 ± 70 L/m^2

**Q.** And the t1/2 ([2]; 56 mg/m^2, plasma)?
**A.** 5.66 ± 3.63 h

**Q.** What about the AUC0-24 ([2]; 85 mg/m^2, plasma) of the same molecule?
**A.** 5970 ± 3900 ng·h/mL

**Q.** And the Cl ([2]; 85 mg/m^2, plasma)?
**A.** 16.6 ± 9.26 L/hr/m^2

**Q.** And the Vss ([2]; 85 mg/m^2, plasma)?
**A.** 142 ± 75.6 L/m^2

**Q.** And the t1/2 ([2]; 85 mg/m^2, plasma)?
**A.** 5.52 ± 5.26 h

**Q.** And the AUC0-24 ([2]; 127.5 mg/m^2, plasma)?
**A.** 4460 ± 2140 ng·h/mL

**Q.** And the Cl ([2]; 127.5 mg/m^2, plasma)?
**A.** 30.2 ± 11.9 L/hr/m^2

**Q.** What about the Vss ([2]; 127.5 mg/m^2, plasma) of the same molecule?
**A.** 239 ± 116 L/m^2

**Q.** What about the t1/2 ([2]; 127.5 mg/m^2, plasma) of the same molecule?
**A.** 6.59 ± 2.60 h

**Q.** And the dose limiting toxicity ([2]; Study S-(1)-01, i.v. weekly ×3, observed in one patient at 185 mg/m^2)?
**A.** Grade 3 sensory neuropathy; also recorded: Grade 3 peripheral neuropathy

**Q.** And the half-life ([2]; both sexes, human, plasma, intravenous, Study S-(1)-01, after first dose, read-out: Plasma t1/2, range over dose groups)?
**A.** 3.45 to 8.4 h

**Q.** And the “dose dependence of AUC (in words)” value ([2]; weekly study)?
**A.** generally dose linear

**Q.** And the clearance [2, 4]?
**A.** 30.2+11.9 L/hr/m^2

**Q.** And the tm [2, 4]?
**A.** 8.6+1.3 hrs

**Q.** What about the anti-neoplastic activity ([2]; weekly study, patients with advanced neoplasms) of the same molecule?
**A.** Anti-neoplastic activity was seen in a patient with pancreatic cancer

**Q.** What about the “drug related adverse events” value ([2]; weekly ×3 then 1 week rest, 7-185 mg/m^2, 25 pts) of the same molecule?
**A.** nausea, vomiting, diarrhea, fatigue, anorexia, rash, anemia and peripheral neuropathy

**Q.** What about the “dose that can be safely administered” value ([2]; weekly×3 in heavily pre-treated patients) of the same molecule?
**A.** up to 185 mg/m^2

**Q.** What about the “AUC (0-t)” value ([3]; Brain) of the same molecule?
**A.** 64984.9 ng·h/mL

**Q.** What about the “AUC (0-∞)” value ([3]; Brain) of the same molecule?
**A.** 88742.9 ng·h/mL

**Q.** What about the Cmax ([3]; Brain) of the same molecule?
**A.** 3726.6 ng/mL

**Q.** What about the “MRT (expo)” value ([3]; Brain) of the same molecule?
**A.** 42.5 h

**Q.** And the “AUC (0-t)” value ([3]; Plasma)?
**A.** 16870.2 ng·h/mL

**Q.** And the “AUC (0-∞)” value ([3]; Plasma)?
**A.** 16951.2 ng·h/mL

**Q.** And the Cmax ([3]; Plasma)?
**A.** 1550.2 ng/mL

**Q.** And the “MRT (expo)” value ([3]; Plasma)?
**A.** 17.6 h

**Q.** And the “passage of the blood-brain barrier (in words)” value ([3]; mouse model)?
**A.** not impeded by the blood-brain barrier
